Test results reported in US8680159B2, “Bradykinin 1 receptor modulating compounds” (Gruenenthal GmbH, priority 2010, dated 2014).

biological target: T1, human B1R receptor (CHO K1 cells stably transfected with the human B1R gene) (Homo sapiens, UniProt P46663); assay: Functional study on the bradykinin receptor 1 (B1R), Ca2+ fluorescence (Fluo-4) FLIPR/Novostar assay, hB1R cells; type: cell-based; settings: CHO-K1, read-out: % inhibition (human B1R) at 10 μM
T1 construct: expressed in transfected cells; host or cells: CHO K1 cells (Chinese hamster ovary), stably transfected
T1 sequence (P46663 1-353): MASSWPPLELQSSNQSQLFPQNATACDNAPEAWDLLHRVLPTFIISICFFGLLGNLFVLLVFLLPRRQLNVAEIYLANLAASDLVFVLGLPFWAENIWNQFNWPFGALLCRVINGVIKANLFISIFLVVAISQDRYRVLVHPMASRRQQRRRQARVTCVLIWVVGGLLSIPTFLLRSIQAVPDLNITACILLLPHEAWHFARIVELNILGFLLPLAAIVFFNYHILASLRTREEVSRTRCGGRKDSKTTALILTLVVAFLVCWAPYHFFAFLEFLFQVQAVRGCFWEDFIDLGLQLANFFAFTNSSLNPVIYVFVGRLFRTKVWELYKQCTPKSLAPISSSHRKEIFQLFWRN
Method in brief: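 Test compounds (10 μM) were added first and the Ca2+ rise was scored as % activation against Lys-Des-Arg9-bradykinin (≥50 nM, human) or Des-Arg9-bradykinin (≥1 μM, rat). After 6-20 min, the matching agonist was given at its EC80, and % inhibition relative to maximal achievable inhibition was calculated.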

SMILES	inhibition at 10 µM [%]
Cc1cc(N2CCC(N(C)C(=O)c3ccc4c(c3)[C@H](N(C(=O)c3ccccc3C)C(C)C)CC4)CC2)nc(C)n1 [Example H-172, (3R)-N-[1-(2,6-Dimethyl-pyrimidin-4-yl)-piperidin-4-yl]-3-[isopropyl-(2-methyl-benzoyl)-amino]-N-methyl-2,3-dihydro-1H-indene-5-carboxylic acid amide]	65
CCN(C(=O)c1cccnc1C(F)(F)F)[C@@H]1CCc2ccc(C(=O)N(C)C3CCN(c4cc(C)nc(C)n4)CC3)cc21 [Example H-174, N-[(1R)-6-[[1-(2,6-Dimethyl-pyrimidin-4-yl)-piperidin-4-yl]-methyl-carbamoyl]-2,3-dihydro-1H-inden-1-yl]-N-ethyl-2-(trifluoromethyl)-pyridine-3-carboxylic acid amide]	100
Cc1cc(N2CCC(N(C)C(=O)c3ccc4c(c3)[C@H](N(C)C(=O)c3c(F)cccc3Cl)CC4)CC2)nc(C)n1 [Example H-175, (3R)-3-[(2-Chloro-6-fluoro-benzoyl)-methyl-amino]-N-[1-(2,6 dimethyl-pyrimidin-4-yl)-piperidin-4-yl]-N-methyl-2,3-dihydro-1H-indene-5-carboxylic acid amide]	97
CCN(C(=O)c1c(F)cccc1Cl)[C@@H]1CCc2ccc(C(=O)N(C)C3CCN(c4cc(C)nc(C)n4)CC3)cc21 [Example H-176]	97
CN(C(=O)c1ccc2c(c1)[C@H](N(C)C(=O)CCC1CCCC1)CC2)C1CCN(c2ccncc2F)CC1 [Example H-188, (3R)-3-(3-Cyclopentyl-propanoyl-methyl-amino)-N-[1-(3-fluoro-pyridin-4-yl)-piperidin-4-yl]-N-methyl-2,3-dihydro-1H-indene-5-carboxylic acid amide]	100
Cc1cc(N2CCC(N(C)C(=O)c3ccc4c(c3)[C@H](NS(=O)(=O)CC(C)C)CC4)CC2)nc(C)n1 [Example H-191, (3R)-N-[1-(2,6-Dimethyl-pyrimidin-4-yl)-piperidin-4-yl]-N-methyl-3-[(2-methyl-propylsulfonyl)amino]-2,3-dihydro-1H-indene-5-carboxylic acid amide]	100
Cc1cc(N2CCC(N(C)C(=O)c3ccc4c(c3)[C@H](N(C)C(=O)c3cccc(F)c3Cl)CC4)CC2)nc(C)n1 [Example H-195, (3R)-3-[(2-Chloro-3-fluoro-benzoyl)-methyl-amino]-N-[1-(2,6 dimethyl-pyrimidin-4-yl)-piperidin-4-yl]-N-methyl-2,3-dihydro-1H-indene-5-carboxylic acid amide]	100
Cc1cc(N2CCC(N(C)C(=O)c3ccc4c(c3)[C@H](N(C(=O)c3cccc(F)c3Cl)C(C)C)CC4)CC2)nc(C)n1 [Example H-196, (3R)-3-[(2-Chloro-3-fluoro-benzoyl)-isopropyl-amino]-N-[1-(2,6-dimethyl-pyrimidin-4-yl)-piperidin-4-yl]-N-methyl-2,3-dihydro-1H-indene-5-carboxylic acid amide]	98
CCN(C(=O)c1cccc(F)c1Cl)[C@@H]1CCc2ccc(C(=O)N(C)C3CCN(c4cc(C)nc(C)n4)CC3)cc21 [Example H-197, (3R)-3-[(2-Chloro-3-fluoro-benzoyl)-ethyl-amino]-N-[1-(2,6-dimethyl-pyrimidin-4-yl)-piperidin-4-yl]-N-meihyl-2,3-dihydro-1H-indene-5-carboxylic acid amide]	100
Cc1cc(N2CCC(N(C)C(=O)c3cc4c(cc3F)CC[C@H]4N(C(=O)c3ccc(F)cc3Cl)C(C)C)CC2)nc(C)n1 [Example H-198, (3R)-3-[(2-Chloro-4-fluoro-benzoyl)-isopropyl-amino]-N-[1-(2,6-dimethyl-pyrimidin-4-yl)-piperidin-4-yl]-6-fluoro-N-methyl-2,3-dihydro-1H-indene-5-carboxylic acid amide]	76
Cc1cc(N2CCC(N(C)C(=O)c3ccc4c(c3)[C@H](N(C(=O)c3ccc(F)cc3Cl)C(C)C)CC4)CC2)nc(C)n1 [Example H-199, (3R)-3-[(2-Chloro-4-fluoro-benzobenzoyl)-isopropyl-amino]-N-[1-(2,6-dimethyl-pyrimidin-4-yl)-piperidin-4-yl]-N-methyl-2,3-dihydro-1H-indene-5-carboxylic acid amide]	94
CC(C)N(C(=O)c1cccc(F)c1Cl)[C@@H]1CCc2ccc(C(=O)N(C)C3CCN(c4ccncc4)CC3)cc21 [Example H-202, (3R)-3-[(2-Chloro-3-fluoro-benzoyl)-isopropyl-amino]-N-methyl-N-(1-pyridin-4-yl-piperidin-4-yl)-2,3-dihydro-1H-indene-5-carboxylic acid amide]	100
CCN(C(=O)c1cccc(F)c1Cl)[C@@H]1CCc2ccc(C(=O)N(C)C3CCN(c4ccncc4)CC3)cc21 [Example H-203, (3R)-3-[(2-Chloro-3-fluoro-benzoyl)-ethyl-amino]-N-methyl-N-(1-pyridin-4-yl-piperidin-4-yl)-2,3-dihydro-1H-indene-5-carboxylic acid amide]	100
CC(C)N(C(=O)c1ccc(F)cc1Cl)[C@@H]1CCc2ccc(C(=O)N(C)C3CCN(c4ccncc4)CC3)cc21 [Example H-204, (3R)-3-[(2-Chloro-4-fluoro-benzoyl)-isopropyl-amino]-N-methyl-N-(1-pyridin-4-yl-piperidin-4-yl)-2,3-dihydro-1H-indene-5-carboxylic acid amide]	100
CN(C(=O)c1ccc2c(c1)[C@H](N(C)C(=O)c1cccc(F)c1Cl)CC2)C1CCN(c2ccncc2)CC1 [Example H-205, (3R)-3-[(2-Chloro-3-fluoro-benzoyl)-methyl-amino]-N-methyl-N-(1-pyridin-4-yl-piperidin-4-yl)-2,3-dihydro-1H-indene-5-carboxylic acid amide]	100
CC(C)N(C(=O)c1ccc(F)cc1Cl)[C@@H]1CCc2cc(F)c(C(=O)N(C)C3CCN(c4ccncc4)CC3)cc21 [Example H-206, (3R)-3-[(2-Chloro-4-fluoro-benzoyl)-isopropyl-amino]-6-fluoro-N-methyl-N-(1-pyridin-4-yl-piperidin-4-yl)-2,3-dihydro-1H-indene-5-carboxylic acid amide]	94
Cc1cc(N2CCC(N(C)C(=O)c3ccc4c(c3)[C@H](N(C(=O)c3cccnc3C(F)(F)F)C(C)C)CC4)CC2)nc(C)n1 [Example H-207]	44
CC(C)N(C(=O)c1cccnc1C(F)(F)F)[C@@H]1CCc2ccc(C(=O)N(C)C3CCN(c4ccncc4)CC3)cc21 [Example H-208, N-Isopropyl-N-[(1R)-6-[methyl-(1-pyridin-4-yl-piperidin-4-yl)-carbamoyl]-2,3-dihydro-1H-inden-1-yl]-2-(trifluoromethyl)-pyridine-3-carboxylic acid amide]	45
Cc1cc(N2CCC(N(C)C(=O)c3cc4c(cc3F)CC[C@H]4N(C(=O)c3cccnc3C(F)(F)F)C(C)C)CC2)nc(C)n1 [Example H-209, N-[(1R)-6-[[1-(2,6-Dimethyl-pyrimidin-4-yl)-piperidin-4-yl]-metyl-carbamoyl]-5-fluoro-2,3-dihydro-1H-inden-1-yl]-N-isopropyl-2-(trifluoromethyl)-pyridine-3-carboxylic acid amide]	10
Cc1cc(N2CCC(N(C)C(=O)c3ccc4c(c3)[C@H](N(C)C(=O)c3cc(F)ccc3Cl)CC4)CC2)nc(C)n1 [Example H-210, (3R)-3-[(2-Chloro-5-fluoro-benzoyl)-methyl-amino]-N-[1-(2,6 dimethyl-pyrimidin-4-yl)-piperidin-4-yl]-N-methyl-2,3-dihydro-1H-indene-5-carboxylic acid amide]	99
CCN(C(=O)c1cc(F)ccc1Cl)[C@@H]1CCc2ccc(C(=O)N(C)C3CCN(c4cc(C)nc(C)n4)CC3)cc21 [Example H-211, (3R)-3-[(2-Chloro-5-fluoro-benzoyl)-ethyl-amino]-N-[1-(2,6-dimethyl-pyrimidin-4-yl)-piperidin-4-yl]-N-meihyl-2,3-dihydro-1H-indene-5-carboxylic acid amide]	99
Cc1cc(N2CCC(N(C)C(=O)c3ccc4c(c3)[C@H](N(C(=O)c3cc(F)ccc3Cl)C(C)C)CC4)CC2)nc(C)n1 [Example H-212, (3R)-3-[(2-Chloro-5-fluoro-benzoyl)-isopropyl-amino]-N-[1-(2,6-dimethyl-pyrimidin-4-yl)-piperidin-4-yl]-N-methyl-2,3-dihydro-1H-indene-5-carboxylic acid amide]	82
Cc1cc(N2CCC(N(C)C(=O)c3cc4c(cc3F)CC[C@H]4NC(=O)c3ccccc3Cl)CC2)nc(C)n1 [Example H-213, (3R)-3-[(2-Chloro-benzoyl)amino]-N-[1-(2,6-dimethyl-pyrimidin-4-yl)-piperidin-4-yl]-6-fluoro-N-methyl-2,3-dihydro-1H-indene-5-carboxylic acid amide]	100
CNc1nccc(N2CCC(N(C)C(=O)c3ccc4c(c3)[C@H](NC(=O)c3ccccc3Cl)CC4)CC2)n1 [Example H-214, (3R)-3-[(2-Chloro-benzoyl)amino]-N-methyl-N-[1-(2-methylamino-pyrimidin-4-yl)-piperidin-4-yl]-2,3-dihydro-1H-indene-5-carboxylic acid amide]	100
